Assay results taken from patent US6777440B2, “HIV integrase inhibitors” (Bristol-Myers Squibb Company, priority 2001, dated 2004).

Molecular target: T1, HIV-integrase (Human immunodeficiency virus type 1 group M subtype B, UniProt P04585)
T1 construct: 0.26 ng of recombinant integrase was incubated with the beads
Test: HIV-integrase inhibition activity (SPA bead strand-transfer assay)
Format: biochemical
Conditions: 50 μM compound; recombinant integrase
Description: For each reaction, 5 pmole of biotin labled substrate DNA was bound to 100 ug of Streptavidin coated PVT SPA beads (Amersham Pharmacia Biotech). 0.26 ng of recombinant integrase was incubated with the beads for 90 min at 37° C. Unbound enzyme was removed by washing the complex followed by addition of inhibitors and 0.1 fmol of P33 labeled target DNA. Reaction was stopped by adding EDTA to a final concentration of 10 mM. Samples were counted in TopCountNXT (Packard) and the CPM was used as a measure of integration. Reaction condition was as described in A. Engelman and R. Craigie, J. Virol. 69, 5908-5911 (1995). The sequences of substrate and target DNA were described in Nucleic Acid Research 22, 1121-1122 (1994). Compounds of this invention tested in this assay have IC50's of approximately 0.01 to 50 μM

| SMILES | inhibition at 50 µM [%] |
| --- | --- |
| CON(Cc1ccccc1)C(=O)/C=C(\O)C(=O)O [Compound 1, 3-(Benzyl-methoxy-carbamoyl)-2-hydroxy-acrylic acid] | 99 |
| O=C(O)/C(O)=C/C(=O)N(Cc1ccccc1)OCc1ccccc1 [Compound 2, 3-(Benzyl-benzyloxy-carbamoyl)-2-hydroxy-acrylic acid] | 99.9 |
| O=C(O)/C(O)=C/C(=O)N(Cc1ccc(Cl)c(Cl)c1)OCc1ccccc1 [Compound 6, 3-[Benzyloxy-(3,4-dichloro-benzyl)-carbamoyl]-2-hydroxy-acrylic acid] | 99.9 |
| CON(Cc1cccc(F)c1)C(=O)/C=C(\O)C(=O)O [Compound 7, 3[(3-Fluoro-benzyl)-methoxy-carbamoyl]-2-hydroxy-acrylic acid] | 99.9 |
| CON(Cc1ccccc1F)C(=O)/C=C(\O)C(=O)O [Compound 8, 3-[(2-Fluoro-benzyl)-methoxy-carbamoyl]-2-hydroxy-acrylic acid] | 99.9 |
| CON(CCc1ccc(F)cc1)C(=O)/C=C(\O)C(=O)O [Compound 9, 3-{[2-(4-Fluoro-phenyl)-ethyl]-methoxy-carbamoyl}-2-hydroxy-acrylic acid] | 99.9 |
| CON(Cc1ccc(Cl)cc1)C(=O)/C=C(\O)C(=O)O [Compound 10, 3-[(4-Chloro-benzyl)-methoxy-carbamoyl]-2-hydroxy-acrylic acid] | 99.9 |
| CON(Cc1ccc(F)c(F)c1)C(=O)/C=C(\O)C(=O)O [Compound 11, 3-[(3,4-Difluoro-benzyl)-methoxy-carbamoyl]-2-hydroxy-acrylic acid] | 99.9 |
| CCON(Cc1ccc(F)cc1)C(=O)/C=C(\O)C(=O)O [Compound 12, 3-[Ethoxy-(4-fluoro-benzyl)-carbamoyl]-2-hydroxy-acrylic acid] | 99.9 |
| CC(C)CON(Cc1ccc(F)cc1)C(=O)/C=C(\O)C(=O)O [Compound 13, 3-[(4-Fluoro-benzyl)-isobutoxy-carbamoyl]-2-hydroxy-acrylic acid] | 99.9 |
| CON(Cc1ccc(F)c(Br)c1)C(=O)/C=C(\O)C(=O)O [Compound 14, 3-[(3-Bromo-4-fluoro-benzyl)-methoxy-carbamoyl]-2-hydroxy-acrylic acid] | 99.9 |
| COc1ccc(CN(OC)C(=O)/C=C(\O)C(=O)O)cc1 [Compound 16, 2-Hydroxy-3-[methoxy-(4-methoxy-benzyl)-carbamoyl]-acrylic acid] | 99 |
| CON(Cc1ccc(F)cc1F)C(=O)/C=C(\O)C(=O)O [Compound 17, 3-[(2,4-Difluoro-benzyl)-methoxy-carbamoyl]-2-hydroxy-acrylic acid] | 99.9 |
| O=C(O)/C(O)=C/C(=O)N(Cc1ccc(F)cc1)OCC(=O)N1CCOCC1 [Compound 62] | > 99 |
| CN(CCCN1c2ccccc2CCc2ccccc21)C(=O)CON(Cc1ccc(F)cc1)C(=O)/C=C(\O)C(=O)O [Compound 63] | > 99 |
| CC(NC(=O)CON(Cc1ccc(F)cc1)C(=O)/C=C(\O)C(=O)O)c1ccccc1 (stereo not shown) [Compound 64] | > 99 |

| SMILES | inhibition at 50 µM [%] |
| --- | --- |
| O=C(CON(Cc1ccc(F)cc1)C(=O)/C=C(\O)C(=O)O)NCc1ccc(F)cc1 [Compound 65] | > 99 |
| O=C(CON(Cc1ccc(F)cc1)C(=O)/C=C(\O)C(=O)O)NCc1ccc(Cl)cc1 [Compound 66] | > 99 |
| COc1ccc(CNC(=O)CON(Cc2ccc(F)cc2)C(=O)/C=C(\O)C(=O)O)cc1 [Compound 67] | > 99 |
| Cc1ccc(CNC(=O)CON(Cc2ccc(F)cc2)C(=O)/C=C(\O)C(=O)O)cc1 [Compound 68] | > 99 |
| O=C(CON(Cc1ccc(F)cc1)C(=O)/C=C(\O)C(=O)O)NCc1ccc(C(F)(F)F)cc1 [Compound 69] | > 99 |
| CC(NC(=O)CON(Cc1ccc(F)cc1)C(=O)/C=C(\O)C(=O)O)c1ccc(F)cc1 (stereo not shown) [Compound 70] | > 99 |
| CN(CCCC(c1ccc(Cl)cc1)c1ccc(Cl)cc1)C(=O)CON(Cc1ccc(F)cc1)C(=O)/C=C(\O)C(=O)O [Compound 71] | > 99 |
| CCCCN(Cc1ccccc1)C(=O)CON(Cc1ccc(F)cc1)C(=O)/C=C(\O)C(=O)O [Compound 72] | > 99 |
| CCCN(CC1CC1)C(=O)CON(Cc1ccc(F)cc1)C(=O)/C=C(\O)C(=O)O [Compound 73] | > 99 |
| CC(C)CN(CC(C)C)C(=O)CON(Cc1ccc(F)cc1)C(=O)/C=C(\O)C(=O)O [Compound 74] | > 99 |
| CCCCCCN(CCCCCC)C(=O)CON(Cc1ccc(F)cc1)C(=O)/C=C(\O)C(=O)O [Compound 75] | > 99 |
| O=C(O)/C(O)=C/C(=O)N(Cc1ccc(F)cc1)OCC(=O)N(C1CCCCC1)C1CCCCC1 [Compound 76] | > 99 |
| CC(=O)N1CCCN(C(=O)CON(Cc2ccc(F)cc2)C(=O)/C=C(\O)C(=O)O)CC1 [Compound 77] | > 99 |
| CCNC(=O)CON(Cc1ccc(F)cc1)C(=O)/C=C(\O)C(=O)O [Compound 78] | > 99 |
| CC(C)CNC(=O)CON(Cc1ccc(F)cc1)C(=O)/C=C(\O)C(=O)O [Compound 79] | > 99 |

Tested on: not given
Test: not given
Conditions: not given

| SMILES | melting point |
| --- | --- |
| CON(Cc1ccccc1)C(=O)/C=C1\OC(C)(C)OC1=O | 109 to 110 °C |
| CON(Cc1ccc(Cl)cc1)C(=O)/C=C1\OC(C)(C)OC1=O | 129 to 130 °C |
| CCON(Cc1ccc(F)cc1)C(=O)/C=C1\OC(C)(C)OC1=O | 95 to 96 °C |
| CC(C)CON(Cc1ccc(F)cc1)C(=O)/C=C1\OC(C)(C)OC1=O | 105 to 106 °C |
| CON(Cc1ccc(F)c(Br)c1)C(=O)/C=C1\OC(C)(C)OC1=O | 117 to 119 °C |
| CON(Cc1ccccc1C)C(=O)/C=C1\OC(C)(C)OC1=O | 96 to 97 °C |
| COc1ccc(CN(OC)C(=O)/C=C2\OC(C)(C)OC2=O)cc1 | 113 to 114 °C |
| CON(Cc1ccc(F)cc1F)C(=O)/C=C1\OC(C)(C)OC1=O | 120 to 125 °C |
| COC(=O)c1ccc(CN(OC)C(=O)/C=C2\OC(C)(C)OC2=O)cc1 | 120 °C |
| CC1(C)OC(=O)/C(=C/C(=O)N(Cc2ccccc2)OCc2ccccc2)O1 | 107 to 108 °C |
| CC(C)(C)OC(=O)CON(Cc1ccc(F)cc1)C(=O)/C=C1\OC(C)(C)OC1=O | 119 to 120 °C |
| CON(Cc1ccc(C#N)cc1)C(=O)/C=C1\OC(C)(C)OC1=O | 148 to 149 °C |
| CON(Cc1ccc(NC(C)=O)cc1)C(=O)/C=C1\OC(C)(C)OC1=O | 212 to 215 °C (dec.) |
| CON(Cc1ccc(C)cc1)C(=O)/C=C(\O)C(=O)O | 108 to 111 °C (dec.) |
| CON(Cc1ccc(C)cc1)C(=O)/C=C1\OC(C)(C)OC1=O | 108 to 110 °C |
| CON(Cc1ccc(F)c(C)c1)C(=O)/C=C(\O)C(=O)O | 120 to 122 °C |
| CON(Cc1ccc(F)c(C)c1)C(=O)/C=C1\OC(C)(C)OC1=O | 107 to 108 °C |
| CON(Cc1ccc(C)c(F)c1)C(=O)/C=C(\O)C(=O)O | 99 °C |
| CON(Cc1ccc(C)c(F)c1)C(=O)/C=C1\OC(C)(C)OC1=O | 131 °C |
| CON(Cc1ccc(C(F)(F)F)cc1)C(=O)/C=C(\O)C(=O)O | 108 to 110 °C |
| CON(Cc1ccc(C(F)(F)F)cc1)C(=O)/C=C1\OC(C)(C)OC1=O | 110 °C |
| CON(Cc1ccc(F)cc1C(F)(F)F)C(=O)/C=C1\OC(C)(C)OC1=O | 129 to 130 °C |
| CON(Cc1ccc(F)cc1Cl)C(=O)/C=C(\O)C(=O)O | 140 to 143 °C |

| SMILES | melting point |
| --- | --- |
| CON(Cc1ccc(F)cc1Cl)C(=O)/C=C1\OC(C)(C)OC1=O | 127 to 128 °C |
| CON(Cc1ccccc1OC(C)C)C(=O)/C=C1\OC(C)(C)OC1=O | 103 °C |
| CON(Cc1ccc(C(=O)O)cc1)C(=O)/C=C(\O)C(=O)O | 123 to 125 °C |
| CON(Cc1ccc(C(=O)OC(C)(C)C)cc1)C(=O)/C=C1\OC(C)(C)OC1=O | 137 to 138 °C |
| CON(Cc1ccc(C(=O)O)cc1)C(=O)/C=C1\OC(C)(C)OC1=O | 217 to 219 °C |
| CON(CCCc1ccc(F)cc1)C(=O)/C=C(\O)C(=O)O | 86 °C (dec.) |
| CON(CCCc1ccc(F)cc1)C(=O)/C=C1\OC(C)(C)OC1=O | 90 to 91 °C |
| CON(CCCc1ccc(Cl)c(Cl)c1)C(=O)/C=C(\O)C(=O)O | 106 °C (dec.) |
| CON(CCCc1ccc(Cl)c(Cl)c1)C(=O)/C=C1\OC(C)(C)OC1=O | 105 to 106 °C |
| CC(C)(C)OC(=O)CON(Cc1ccc(Cl)c(Cl)c1)C(=O)/C=C1\OC(C)(C)OC1=O | 127 to 129 °C |
| CN(C)CCON(Cc1ccc(F)cc1)C(=O)/C=C1\OC(C)(C)OC1=O | 95 to 96 °C |
| CC1(C)OC(=O)/C(=C/C(=O)N(Cc2ccc(Cl)c(Cl)c2)OCc2ccccc2)O1 | 113 to 116 °C |
| CON(Cc1cccc(F)c1)C(=O)/C=C1\OC(C)(C)OC1=O | 110 to 111 °C |
| CON(Cc1ccccc1F)C(=O)/C=C1\OC(C)(C)OC1=O | 109 to 111 °C |
| CON(CCc1ccc(F)cc1)C(=O)/C=C1\OC(C)(C)OC1=O | 106 to 107 °C |
| CON(CCc1ccc(F)cc1)C(=O)/C=C(\O)C(=O)O [Compound 9, 3-{[2-(4-Fluoro-phenyl)-ethyl]-methoxy-carbamoyl}-2-hydroxy-acrylic acid] | 107 to 108 °C (dec.) |
| CON(Cc1ccc(F)c(F)c1)C(=O)/C=C(\O)C(=O)O [Compound 11, 3-[(3,4-Difluoro-benzyl)-methoxy-carbamoyl]-2-hydroxy-acrylic acid] | 127 to 129 °C |
| CCON(Cc1ccc(F)cc1)C(=O)/C=C(\O)C(=O)O [Compound 12, 3-[Ethoxy-(4-fluoro-benzyl)-carbamoyl]-2-hydroxy-acrylic acid] | 120 to 121 °C (dec.) |
| CC(C)CON(Cc1ccc(F)cc1)C(=O)/C=C(\O)C(=O)O [Compound 13, 3-[(4-Fluoro-benzyl)-isobutoxy-carbamoyl]-2-hydroxy-acrylic acid] | 100 to 101 °C |
| CON(Cc1ccc(F)c(Br)c1)C(=O)/C=C(\O)C(=O)O [Compound 14, 3-[(3-Bromo-4-fluoro-benzyl)-methoxy-carbamoyl]-2-hydroxy-acrylic acid] | 140 to 141 °C |
| COc1ccc(CN(OC)C(=O)/C=C(\O)C(=O)O)cc1 [Compound 16, 2-Hydroxy-3-[methoxy-(4-methoxy-benzyl)-carbamoyl]-acrylic acid] | 83 to 86 °C |
| CON(Cc1ccc(F)cc1F)C(=O)/C=C(\O)C(=O)O [Compound 17, 3-[(2,4-Difluoro-benzyl)-methoxy-carbamoyl]-2-hydroxy-acrylic acid] | 131 to 132 °C |
